The results in this text go back to ChEMBL document CHEMBL3132769, “Fragment growing to retain or alter the selectivity of anchored kinase hinge-binding fragments” (Medchemcomm, 2014).

Assay [1] has as its target Aurora kinase B (Homo sapiens) (UniProt Q96GD4). Description: Inhibition of human full length AurB expressed in baculovirus assessed as substrate phosphorylation using fluorescence-labelled peptides as substrate at 2 uM after 90 mins by microfluidic peptide phosphorylation assay.
For assay [2], the target named is Protein kinase C gamma type (Homo sapiens) (UniProt P05129). Description: Inhibition of human truncated PKC gamma expressed in baculovirus assessed as substrate phosphorylation using fluorescence-labelled peptides as substrate at 2 uM after 90 mins by microfluidic peptide phosphorylation assay.
The target of assay [3] is Serine/threonine-protein kinase MARK2 (Homo sapiens) (UniProt Q7KZI7). As to the kind of experiment: Inhibition of human full length MARK2 expressed in baculovirus assessed as substrate phosphorylation using fluorescence-labelled peptides as substrate at 0.1 uM after 90 mins by microfluidic peptide phosphorylation assay.
In assay [4] the target is MAP/microtubule affinity-regulating kinase 3 (Homo sapiens) (UniProt P27448). As to the kind of experiment: Inhibition of human full length c-TAK1 expressed in Escherichia coli cell assessed as substrate phosphorylation using fluorescence-labelled peptides as substrate at 0.2 uM after 90 mins by microfluidic peptide phosphorylation assay.
MAP/microtubule affinity-regulating kinase 3 (Homo sapiens), sequence (P27448 whole entry, looked up): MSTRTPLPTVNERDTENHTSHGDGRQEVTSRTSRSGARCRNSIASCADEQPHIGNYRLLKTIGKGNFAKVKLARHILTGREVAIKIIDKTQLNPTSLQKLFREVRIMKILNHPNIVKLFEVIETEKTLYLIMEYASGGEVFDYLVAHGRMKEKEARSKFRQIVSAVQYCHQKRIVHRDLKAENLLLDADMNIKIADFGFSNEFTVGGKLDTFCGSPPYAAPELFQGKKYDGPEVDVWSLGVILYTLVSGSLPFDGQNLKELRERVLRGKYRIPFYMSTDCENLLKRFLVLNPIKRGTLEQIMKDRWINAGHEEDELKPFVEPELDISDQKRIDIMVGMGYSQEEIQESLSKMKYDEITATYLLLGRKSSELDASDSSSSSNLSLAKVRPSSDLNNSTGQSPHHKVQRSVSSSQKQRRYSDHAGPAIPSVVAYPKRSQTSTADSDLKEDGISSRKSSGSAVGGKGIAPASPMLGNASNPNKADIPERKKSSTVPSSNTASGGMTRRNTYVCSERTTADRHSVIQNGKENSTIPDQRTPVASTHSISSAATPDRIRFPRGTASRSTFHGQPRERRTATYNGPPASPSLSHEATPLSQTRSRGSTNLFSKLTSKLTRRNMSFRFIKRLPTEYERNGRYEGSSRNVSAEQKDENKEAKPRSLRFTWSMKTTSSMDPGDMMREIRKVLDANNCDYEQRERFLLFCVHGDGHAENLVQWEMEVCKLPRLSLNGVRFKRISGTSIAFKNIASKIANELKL
The target of assay [5] is Calcium/calmodulin-dependent protein kinase type II subunit delta (Homo sapiens) (UniProt Q13557). Description: Inhibition of human full length CAMK2D expressed in baculovirus assessed as substrate phosphorylation using fluorescence-labelled peptides as substrate at 0.2 uM after 90 mins by microfluidic peptide phosphorylation assay.
Calcium/calmodulin-dependent protein kinase type II subunit delta (Homo sapiens), sequence (Q13557 whole entry, the tested form may be a part, canonical isoform): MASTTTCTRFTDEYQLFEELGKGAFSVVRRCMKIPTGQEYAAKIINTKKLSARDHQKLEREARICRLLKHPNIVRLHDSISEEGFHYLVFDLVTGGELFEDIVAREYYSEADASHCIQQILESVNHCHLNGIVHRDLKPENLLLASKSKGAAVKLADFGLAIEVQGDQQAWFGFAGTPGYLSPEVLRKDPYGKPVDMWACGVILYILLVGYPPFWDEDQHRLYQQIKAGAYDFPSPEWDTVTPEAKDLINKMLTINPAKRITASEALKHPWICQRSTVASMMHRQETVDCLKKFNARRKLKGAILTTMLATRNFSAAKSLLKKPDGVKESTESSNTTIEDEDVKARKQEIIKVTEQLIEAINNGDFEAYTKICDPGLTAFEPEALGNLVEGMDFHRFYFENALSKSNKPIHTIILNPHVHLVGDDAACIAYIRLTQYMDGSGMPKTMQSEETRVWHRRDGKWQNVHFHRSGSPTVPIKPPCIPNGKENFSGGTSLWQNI
The target in assay [6] is Casein kinase I isoform delta (Homo sapiens) (UniProt P48730). Description: Inhibition of human CK1D catalytic domain expressed in Escherichia coli cell assessed as substrate phosphorylation using fluorescence-labelled peptides as substrate at 0.2 uM after 90 mins by microfluidic peptide phosphorylation assay.
Casein kinase I isoform delta (Homo sapiens), sequence (P48730 whole entry, looked up, the tested form may be a part, canonical isoform): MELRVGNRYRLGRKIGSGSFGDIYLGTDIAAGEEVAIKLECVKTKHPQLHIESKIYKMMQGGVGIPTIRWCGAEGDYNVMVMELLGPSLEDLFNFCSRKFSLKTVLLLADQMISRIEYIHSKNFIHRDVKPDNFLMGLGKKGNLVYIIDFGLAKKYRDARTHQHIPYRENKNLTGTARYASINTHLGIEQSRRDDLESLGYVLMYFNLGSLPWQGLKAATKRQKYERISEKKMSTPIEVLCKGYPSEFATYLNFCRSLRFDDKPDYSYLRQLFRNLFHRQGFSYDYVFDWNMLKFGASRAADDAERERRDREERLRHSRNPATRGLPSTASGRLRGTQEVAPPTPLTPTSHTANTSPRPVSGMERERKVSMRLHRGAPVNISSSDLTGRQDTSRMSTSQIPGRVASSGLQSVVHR
The target in assay [7] is RAC-alpha serine/threonine-protein kinase (Homo sapiens) (UniProt P31749). As to the kind of experiment: Inhibition of human AKT1 catalytic domain expressed in baculovirus assessed as substrate phosphorylation using fluorescence-labelled peptides as substrate at 9 uM after 90 mins by microfluidic peptide phosphorylation assay.
RAC-alpha serine/threonine-protein kinase (Homo sapiens), sequence (P31749 whole entry, the tested form may be a part): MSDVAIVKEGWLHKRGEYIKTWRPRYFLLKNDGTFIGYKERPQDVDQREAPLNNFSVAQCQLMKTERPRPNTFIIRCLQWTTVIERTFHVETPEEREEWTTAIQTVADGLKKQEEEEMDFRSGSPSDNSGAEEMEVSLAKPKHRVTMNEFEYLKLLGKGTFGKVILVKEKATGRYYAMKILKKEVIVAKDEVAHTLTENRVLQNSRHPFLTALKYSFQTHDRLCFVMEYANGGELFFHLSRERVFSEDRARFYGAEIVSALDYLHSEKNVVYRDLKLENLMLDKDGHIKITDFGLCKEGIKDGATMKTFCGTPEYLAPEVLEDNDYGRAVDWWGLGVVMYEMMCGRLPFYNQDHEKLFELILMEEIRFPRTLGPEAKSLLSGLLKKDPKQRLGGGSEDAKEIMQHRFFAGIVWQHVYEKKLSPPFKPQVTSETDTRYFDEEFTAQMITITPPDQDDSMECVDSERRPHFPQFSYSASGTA
Assay [8] concerns the target T1, Serine/threonine-protein kinase Sgk3 (Homo sapiens) (UniProt Q96BR1).
T1 sequence (whole entry): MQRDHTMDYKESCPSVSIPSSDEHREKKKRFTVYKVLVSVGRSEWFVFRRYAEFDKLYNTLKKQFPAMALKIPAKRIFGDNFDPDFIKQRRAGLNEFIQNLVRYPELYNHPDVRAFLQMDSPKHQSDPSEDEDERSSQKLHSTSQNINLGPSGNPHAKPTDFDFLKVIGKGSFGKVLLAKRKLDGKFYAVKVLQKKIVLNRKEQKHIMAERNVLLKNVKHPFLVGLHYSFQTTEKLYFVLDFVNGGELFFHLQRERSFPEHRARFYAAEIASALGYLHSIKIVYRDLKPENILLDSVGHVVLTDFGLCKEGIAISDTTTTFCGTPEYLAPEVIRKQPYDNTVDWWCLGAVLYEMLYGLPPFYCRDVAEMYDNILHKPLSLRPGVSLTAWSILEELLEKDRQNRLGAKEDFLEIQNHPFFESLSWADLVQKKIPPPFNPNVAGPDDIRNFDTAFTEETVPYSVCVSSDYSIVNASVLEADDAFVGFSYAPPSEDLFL
As to the kind of experiment: Inhibition of human full length SGK3 expressed in baculovirus assessed as substrate phosphorylation using fluorescence-labelled peptides as substrate at 95 uM after 90 mins by microfluidic peptide phosphorylation assay.

Assay [9] concerns the target T2, Serine/threonine-protein kinase D1 (Homo sapiens) (UniProt Q15139).
T2 sequence (whole entry): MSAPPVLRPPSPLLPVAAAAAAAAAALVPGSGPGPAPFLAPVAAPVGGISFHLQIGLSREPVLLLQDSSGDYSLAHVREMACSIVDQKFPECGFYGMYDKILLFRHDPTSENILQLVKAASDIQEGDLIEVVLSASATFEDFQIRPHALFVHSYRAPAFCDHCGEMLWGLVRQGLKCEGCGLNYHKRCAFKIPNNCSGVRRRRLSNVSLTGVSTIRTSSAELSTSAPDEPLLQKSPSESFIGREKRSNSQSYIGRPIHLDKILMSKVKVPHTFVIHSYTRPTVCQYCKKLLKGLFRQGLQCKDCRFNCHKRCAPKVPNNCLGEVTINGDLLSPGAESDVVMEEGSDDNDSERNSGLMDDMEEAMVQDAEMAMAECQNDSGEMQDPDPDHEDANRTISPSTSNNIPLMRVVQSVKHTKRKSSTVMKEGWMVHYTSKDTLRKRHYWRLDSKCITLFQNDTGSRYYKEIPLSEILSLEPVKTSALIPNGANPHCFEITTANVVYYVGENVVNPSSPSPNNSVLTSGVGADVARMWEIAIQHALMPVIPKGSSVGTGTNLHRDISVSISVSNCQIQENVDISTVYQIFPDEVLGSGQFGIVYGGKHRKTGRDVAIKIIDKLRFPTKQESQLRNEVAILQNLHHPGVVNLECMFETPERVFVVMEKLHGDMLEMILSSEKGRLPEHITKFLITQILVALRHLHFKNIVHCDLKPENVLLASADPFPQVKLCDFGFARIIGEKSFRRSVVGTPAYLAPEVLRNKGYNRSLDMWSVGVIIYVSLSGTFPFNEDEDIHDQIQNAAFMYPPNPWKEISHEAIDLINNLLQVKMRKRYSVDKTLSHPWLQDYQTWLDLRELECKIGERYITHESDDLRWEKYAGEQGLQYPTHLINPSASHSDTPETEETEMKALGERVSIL
Description: Inhibition of human full length PKD1 expressed in baculovirus assessed as substrate phosphorylation using fluorescence-labelled peptides as substrate at 8 uM after 90 mins by microfluidic peptide phosphorylation assay.

The target of assay [10] is T3, Serine/threonine-protein kinase Nek2 (Homo sapiens) (UniProt P51955).
T3 sequence (whole entry): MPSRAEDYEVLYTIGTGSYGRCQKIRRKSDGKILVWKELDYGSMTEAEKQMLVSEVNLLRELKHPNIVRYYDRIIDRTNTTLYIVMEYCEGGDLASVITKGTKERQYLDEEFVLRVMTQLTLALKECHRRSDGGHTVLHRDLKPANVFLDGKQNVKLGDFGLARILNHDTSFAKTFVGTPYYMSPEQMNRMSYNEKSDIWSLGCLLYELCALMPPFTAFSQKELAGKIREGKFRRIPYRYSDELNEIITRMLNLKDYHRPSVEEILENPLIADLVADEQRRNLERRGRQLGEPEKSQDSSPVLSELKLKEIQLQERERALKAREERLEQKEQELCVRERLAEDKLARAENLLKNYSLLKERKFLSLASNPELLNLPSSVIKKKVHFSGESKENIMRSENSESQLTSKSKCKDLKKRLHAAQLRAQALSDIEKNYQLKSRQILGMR
Description: Inhibition of human full length NEK2 expressed in baculovirus assessed as substrate phosphorylation using fluorescence-labelled peptides as substrate at 70 uM after 90 mins by microfluidic peptide phosphorylation assay.

Assay [11] has as its target Casein kinase I isoform delta (Homo sapiens) (UniProt P48730). Description: Inhibition of human CK1D catalytic domain expressed in Escherichia coli cell assessed as substrate phosphorylation using fluorescence-labelled peptides as substrate at […] after 90 mins by microfluidic peptide phosphorylation assay.
In assay [12] the target is Hepatocyte growth factor receptor (Homo sapiens) (UniProt P08581). As to the kind of experiment: Inhibition of human MET cytoplasmic domain expressed in baculovirus assessed as substrate phosphorylation using fluorescence-labelled peptides as substrate at 1000 uM after 90 mins by microfluidic peptide phosphorylation assay.
Hepatocyte growth factor receptor (Homo sapiens), sequence (P08581 whole entry, the tested form may be a part): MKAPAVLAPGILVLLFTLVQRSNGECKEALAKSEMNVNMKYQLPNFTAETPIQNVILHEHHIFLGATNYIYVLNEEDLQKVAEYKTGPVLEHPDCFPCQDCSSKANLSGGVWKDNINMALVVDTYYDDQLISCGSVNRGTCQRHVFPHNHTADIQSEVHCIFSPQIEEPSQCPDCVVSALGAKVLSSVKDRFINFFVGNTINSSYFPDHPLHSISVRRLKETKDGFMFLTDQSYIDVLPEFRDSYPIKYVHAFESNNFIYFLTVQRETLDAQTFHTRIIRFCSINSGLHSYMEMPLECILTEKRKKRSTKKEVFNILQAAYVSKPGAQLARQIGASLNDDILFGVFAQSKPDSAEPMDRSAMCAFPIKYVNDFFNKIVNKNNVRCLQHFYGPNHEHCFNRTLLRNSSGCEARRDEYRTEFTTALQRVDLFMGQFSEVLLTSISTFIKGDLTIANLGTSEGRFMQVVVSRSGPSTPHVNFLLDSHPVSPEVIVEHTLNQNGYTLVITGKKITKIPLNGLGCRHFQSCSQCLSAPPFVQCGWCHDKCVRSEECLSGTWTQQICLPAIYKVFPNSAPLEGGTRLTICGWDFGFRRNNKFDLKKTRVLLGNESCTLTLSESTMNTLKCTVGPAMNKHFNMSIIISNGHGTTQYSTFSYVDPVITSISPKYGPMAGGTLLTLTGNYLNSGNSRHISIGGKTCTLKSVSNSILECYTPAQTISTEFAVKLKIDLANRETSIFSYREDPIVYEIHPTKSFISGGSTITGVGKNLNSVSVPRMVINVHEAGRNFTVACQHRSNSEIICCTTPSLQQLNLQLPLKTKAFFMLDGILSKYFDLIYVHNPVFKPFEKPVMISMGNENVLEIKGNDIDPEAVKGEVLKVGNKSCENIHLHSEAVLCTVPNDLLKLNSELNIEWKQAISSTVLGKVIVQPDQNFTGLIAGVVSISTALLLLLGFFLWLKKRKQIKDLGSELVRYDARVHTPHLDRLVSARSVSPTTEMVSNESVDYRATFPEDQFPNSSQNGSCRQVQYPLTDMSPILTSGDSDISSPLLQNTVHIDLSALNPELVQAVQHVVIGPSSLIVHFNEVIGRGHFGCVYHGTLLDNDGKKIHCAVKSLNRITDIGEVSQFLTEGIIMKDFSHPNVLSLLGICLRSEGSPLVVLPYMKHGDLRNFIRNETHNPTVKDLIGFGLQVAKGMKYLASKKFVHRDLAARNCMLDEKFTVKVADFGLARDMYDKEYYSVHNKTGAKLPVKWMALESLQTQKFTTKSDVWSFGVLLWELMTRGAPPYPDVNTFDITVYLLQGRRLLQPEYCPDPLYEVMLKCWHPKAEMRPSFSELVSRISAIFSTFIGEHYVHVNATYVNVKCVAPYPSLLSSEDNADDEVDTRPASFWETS

Molecules are shown by their SMILES.

Aurora kinase B (Homo sapiens), sequence (Q96GD4 whole entry, the tested form may be a part): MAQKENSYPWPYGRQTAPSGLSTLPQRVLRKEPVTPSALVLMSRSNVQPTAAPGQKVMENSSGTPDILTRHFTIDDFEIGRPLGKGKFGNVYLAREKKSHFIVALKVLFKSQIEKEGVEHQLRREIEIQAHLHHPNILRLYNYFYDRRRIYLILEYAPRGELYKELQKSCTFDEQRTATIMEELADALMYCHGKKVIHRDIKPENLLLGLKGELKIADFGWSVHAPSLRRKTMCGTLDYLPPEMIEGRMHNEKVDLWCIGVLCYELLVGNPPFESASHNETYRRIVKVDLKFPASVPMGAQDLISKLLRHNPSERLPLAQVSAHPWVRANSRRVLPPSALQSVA

Consider `NC1CCN(c2ncnc3[nH]ccc23)CC1`, for which the values for the inhibition in assay [1] and in assay [2] were 34% and 57.5%, respectively.
Regarding `C[C@H](CN(C)C)Oc1nc(Nc2cc3cccc(Cl)c3cn2)cnc1C#N`, in [3], the inhibition (in general, the drop in the measured response relative to a control, in per cent) was 2%.
For `Clc1ccc(C2(c3ccc(-c4ncnc5[nH]cnc45)cc3)CCNCC2)cc1`, the inhibition in assay [4] was determined as 27.5%; in assay [5], 16%; in assay [6] it was 8.5%.
Turning to `NCC1CN(c2ncnc3[nH]c4cnccc4c23)CCO1` (configuration not stated), the inhibition in assay [7] worked out at 52%.
On to `NCCc1ccc(-c2ncnc3[nH]cnc23)cc1`, for which, in [8], the inhibition was 41.5%.
Turning to `NCC1CCN(c2ncnc3[nH]ccc23)CC1`, the inhibition in [9] came to 75.5%.
With `CNCc1ccc(-c2ncnc3[nH]cnc23)cc1`, the inhibition in assay [10] is 15.5%.
With `COC(=O)c1cnc(Nc2cnc(C#N)cn2)cc1NCC1CCNCC1`, the inhibition in assay [11] is 10.5%.
`c1cnc2[nH]ccc2c1`: in assay [12], the inhibition came out at 55%.
